Measured values from ChEMBL document CHEMBL3352627, “Brocazines A-F, Cytotoxic Bisthiodiketopiperazine Derivatives from Penicillium brocae MA-231, an Endophytic Fungus Derived from the Marine Mangrove Plant Avicennia marina” (J Nat Prod, 2014).

Columns and labels:
Assay type in all cases: functional, cell-based
NCI-H460 = assay: cells; conditions: Homo sapiens
Description: Cytotoxicity against human NCI-H460 cells assessed as reduction in cell viability

HeLa = assay: Cytotoxicity against human HeLa cells assessed as reduction in cell viability
[1] = Cytotoxicity against human SGC7901 cells assessed as reduction in cell viability; conditions: SGC-7901
SW1990 = assay: Cytotoxicity against human SW1990 cells assessed as reduction in cell viability
MCF7 = assay: Cytotoxicity against human MCF7 cells assessed as reduction in cell viability
HepG2 = assay: Cytotoxicity against human HepG2 cells assessed as reduction in cell viability
SW480 = assay: Cytotoxicity against human SW480 cells assessed as reduction in cell viability
U-251 = assay: Cytotoxicity against human U251 cells assessed as reduction in cell viability
DU-145 = assay: Cytotoxicity against human DU145 cells assessed as reduction in cell viability

Structure (SMILES)	IC50 (NCI-H460) [µM]	IC50 (HeLa) [µM]	IC50 [1] [µM]	IC50 (SW1990) [µM]	IC50 (MCF7) [µM]	IC50 (HepG2) [µM]	IC50 (SW480) [µM]	IC50 (U-251) [µM]	IC50 (DU-145) [µM]
CO[C@H]1CC(=O)[C@@H]2C[C@@]34SS[C@]5(C[C@@H]6C(=O)C=C[C@H](O)[C@H]6N5C3=O)C(=O)N4[C@@H]2[C@H]1O	4.9	6.8	2.6	6	5.5	6.4	2	5.2	4.2
O=C1C=C[C@H](O)[C@@H]2[C@@H]1C[C@@]13SS[C@]4(C[C@H]5C(=O)CC[C@H](O)[C@H]5N4C1=O)C(=O)N23	4	5.3	2.4	6.4	6.1	5.5	1.2	3.5	3.6
O=C1C[C@H](O)[C@H](O)[C@@H]2[C@H]1C[C@@]13SS[C@]4(C[C@H]5[C@@H]([C@@H](O)C=C[C@@H]5O)N4C1=O)C(=O)N23	> 20	> 20	> 20	> 20	> 20	> 20	> 20	> 20	> 20
CO[C@H]1CC(=O)[C@@H]2C[C@@]34SS[C@]5(C[C@H]6C(=O)C[C@H](O)[C@H](O)[C@H]6N5C3=O)C(=O)N4[C@@H]2[C@H]1O	> 20	> 20	> 20	> 20	> 20	> 20	> 20	> 20	> 20
O=C1N2[C@H]3[C@H](C[C@]24SS[C@]12C[C@H]1[C@@H]([C@@H](O)C=C[C@@H]1O)N2C4=O)[C@@H](O)C=C[C@@H]3O	12.4	4.3	3.3	2.1	9	5.6		6.1	11.2
O=C1C=C[C@H](O)[C@@H]2[C@@H]1C[C@@]13SS[C@]4(C[C@H]5[C@@H]([C@@H](O)C=C[C@@H]5O)N4C1=O)C(=O)N23	0.89	6.9	8	5.9	3	2.9		5.3	1.7
COc1cccc2c1C(=O)c1c(O)c3c(c(O)c1C2=O)C[C@@](O)(C(=O)CO)C[C@@H]3O[C@H]1C[C@H](N)[C@H](O)[C@H](C)O1 [DOXORUBICIN]			2.9						
Nc1ccn([C@@H]2O[C@H](CO)[C@@H](O)C2(F)F)c(=O)n1 [GEMCITABINE]				2.2					
CC(=O)O[C@H]1C(=O)[C@@]2(C)[C@H]([C@H](OC(=O)c3ccccc3)[C@]3(O)C[C@H](OC(=O)[C@H](O)[C@@H](NC(=O)c4ccccc4)c4ccccc4)C(C)=C1C3(C)C)[C@]1(OC(C)=O)CO[C@@H]1C[C@@H]2O [PACLITAXEL]		5			1.8				1.5
